Measured values as given in patent publication US20200383969A1, “RIMEGEPANT FOR CGRP RELATED DISORDERS” (Biohaven Pharmaceutical Holding Company Ltd., priority 2018, published 2020).

Experiment: Study 303 (BHV3000-303), Phase 3, rimegepant 75 mg ODT vs placebo, acute treatment of migraine
Type: in vivo, human
Text: Clinical Trial—BHV3000-303: Phase 3: Double-Blind, Randomized, Placebo-Controlled, Safety and Efficacy Trial of BHV-3000 (Rimegepant) Orally Discintegrating Tablet (ODT) for the Acute Treatment of Migraine (ClinicalTrials.gov Identifier: NCT03461757) • Study Type: Interventional (Clinical Trial) • Actual Enrollment: 1812 participants • Allocation: Randomized • Intervention Model: Parallel Assignment • Masking: Triple (Participant, Care Provider, Investigator) • Primary Purpose: Treatment • Official Title: BHV3000-303: Phase 3, Double-Blind, Randomized, Placebo Controlled, Safety and Efficacy Trial of BHV-3000 (Rimegepant) Orally Disintegrating Tablet (ODT) for the Acute Treatment of Migraine • Actual Study Start Date: Feb. 27, 2018 • Actual Primary Completion Date: Oct. 8, 2018 • Actual Study Completion Date: Oct. 15, 2018 • 1. Pain freedom of rimegepant compared with placebo in the acute treatment of migraine will be measured using the number of evaluable subjects that report no pain at 2 hours post-dose. • Pain will be measured on a 4 point Likert scale (0=none, 1=mild, 2=moderate, 3=severe) • 2. Freedom from the most bothersome symptom (MBS) of rimegepant compared with placebo will be measured using the number of evaluable subjects that report the absence of their MBS at 2 hours post-dose. [Time Frame: Two Hours Post Dose] • The MBS (nausea, phonophobia or photophobia) will measured using a binary scale (0=absent, 1=present). • 1. […] [Time Frame: 2 Hours Post-Dose] • Pain Relief as measured by a 4 point numeric rating scale (None, Mild, Moderate, Severe) • 2. […] [ Time Frame: 2 hours-24 hours post-dose] • Sustained Pain Relief as measured by a 4 point numeric rating scale (None, Mild, Moderate, Severe) • 4. […] To measure rimegepant compared to placebo on the probability of requiring rescue medication will be assessed using the number of subjects that take rescue medication within […] administration of study medication (BHV3000 or placebo). […] Sustained ability to function at a normal level as measured by the Functional disability scale [Time Frame: 2 to 24 hours post dose] • Subjects self-report “normal” on the functional disability scale • 7. […] [Time Frame: 2 hours-48 hours post-dose] • Sustained Pain Relief as measured by a 4 point numeric rating scale (None, Mild, Moderate, Severe) • 8. […] Sustained ability to function at a normal level as measured by the Functional disability scale [Time Frame: 2 to 48 hours post dose] • Subjects self-report “normal” on the functional disability scale • 10. […] [Time Frame: 90 minutes post dose] • Pain Relief as measured by a 4 point numeric rating scale (None, Mild, Moderate, Severe) • 13. […] [Time Frame: 2 hours -24 hours post-dose] • Sustained Pain Freedom as measured by a 4 point numeric rating scale (None, Mild, Moderate, Severe) • 14. […]

N[C@@H]1c2cccnc2[C@H](OC(=O)N2CCC(n3c(=O)[nH]c4ncccc43)CC2)CC[C@H]1c1cccc(F)c1F [Rimegepant, [(5S,6S,9R)-5-amino-6-(2,3-difluorophenyl)-6,7,8,9-tetrahydro-5H-cyclohepta[b]pyridin-9-yl] 4-(2-oxo-3H-imidazo[4,5-b]pyridin-1-yl)piperidine-1-carboxylate]
LFTs>3×ULN, number of patients (Study 303): one
Clinical benefit through 48 hours (pain relief, pain freedom, MBS, functional disability) vs placebo (Study 303, single dose): Lasting clinical benefit
Safety and tolerability (Study 303 vs Studies 301 and 302): consistent with the profile previously observed
Highest incidence of any single adverse event (rimegepant group, Study 303 paragraph, sentence follows mention of pooled Table 9): ≤ 1.6%
